Results published in patent US8063026B2, “Method of palliating lower urinary tract infections by treatment with mannan oligosaccharides” (priority 2006, dated 2011).

Tested on: UTI symptoms
Assay: Treatment of UTI symptoms in a patient (case reports)
Assay type: in vivo, human
Settings: recurrent UTI episodes about 48 hours after sex, 1 tablet twice daily for five days
Description: A patient had been experiencing urinary tract infections since 1999. Episodes were very painful and invariably occurred about 48 hours after having sex. […] This pattern persisted for 6 years.
During an episode of UTI symptoms (urge to urinate; severe burning with urination; blood in urine), 100 mg MOS was administered to a patient (weighing approximately 50 kg) as a tablet (BioMOS® tablets, Alltech)-1 tablet before and after sex, plus three tablets per day.
Beginning during a symptom-free period, 100 mg MOS was administered to a patient (weighing approximately 50 kg) as a tablet (BioMOS® tablets, Alltech), once per day plus one pill with sex.
During a symptom-free period, 500 mg of MOS was administered as a capsule (capsules prepared from bulk CitriStim™, Archer Daniels Midland Alliance Nutrition, Inc., Quincy, Ill.; 1 or 2 capsules daily). […] Two capsules (CitriStim) were administered (three hours apart), followed 2 hours later by 100 mg MOS in tablet form (BioMOS® tablets, Alltech). […] Two MOS tablets were administered that morning (4 hours apart). In the late afternoon, a CitriStim capsule was administered, and one capsule was administered twice the following day.

Compound: O=C(O)c1cn(C2CC2)c2cc(N3CCNCC3)c(F)cc2c1=O [Cipro®, ciprofloxacin]
- Relief of UTI symptoms: quickly relieve symptoms

Compound: trimethoprim-sulfamethoxazole [Bactrin DS®]
- Relief of UTI symptoms: quickly relieve symptoms
